# From the supplement of paper PMC10307832
# Experiments:
# Test in all cases: relative viability (nuclei count vs DMSO), 5 days (fraction); higher = more cells survive
# Bleomycin = compound: CC1=C(N=C(N=C1N)[C@H](CC(=O)N)NC[C@@H](C(=O)N)N)C(=O)N[C@@H]([C@H](C2=CN=CN2)OC3C(C(C(C(O3)CO)O)O)OC4C(C(C(C(O4)CO)O)OC(=O)N)O)C(=O)N[C@H](C)[C@H]([C@H](C)C(=O)N[C@@H]([C@@H](C)O)C(=O)NCCC5=NC(=CS5)C6=NC(=CS6)C(=O)NCCC[S+](C)C)O [Bleomycin]; settings: main component drawn
# In short: (§1)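 Lung cancer cell lines received five library-drug doses (not always all listed) spaced by √10, pinned on vehicle-anchored 1536-well plates after an overnight stay at 37 °C. Five days later, with no medium change, nuclei were Hoechst-stained, imaged at 4× and counted with MetaXpress. Viability is treated-well nuclei relative to vehicle-well nuclei, as a median across plates. Passing plates had control CV below 25% and at least one doubling.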
# Etoposide = compound: COc1cc([C@@H]2c3cc4c(cc3[C@@H](O[C@@H]3O[C@@H]5CO[C@@H](C)O[C@H]5[C@H](O)[C@H]3O)[C@H]3COC(=O)[C@H]23)OCO4)cc(OC)c1O [Etoposide]
# In short: as §1
# Bleomycin + OSI-027 = compound: CC1=C(N=C(N=C1N)[C@H](CC(=O)N)NC[C@@H](C(=O)N)N)C(=O)N[C@@H]([C@H](C2=CN=CN2)OC3C(C(C(C(O3)CO)O)O)OC4C(C(C(C(O4)CO)O)OC(=O)N)O)C(=O)N[C@H](C)[C@H]([C@H](C)C(=O)N[C@@H]([C@@H](C)O)C(=O)NCCC5=NC(=CS5)C6=NC(=CS6)C(=O)NCCC[S+](C)C)O [Bleomycin] + COc1cccc2cc(-c3nc([C@H]4CC[C@H](C(=O)O)CC4)n4ncnc(N)c34)[nH]c12 [OSI-027] (partner 0.5 µM); settings: main component drawn
# In short: (§2)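 Lung cancer cell lines were seeded in 1536-well plates and dosed by pin tool the next day, with either a single drug or a fixed anchor-drug dose combined with five library-drug doses (not always all listed) spaced in √10 steps. Five days later, one step fixed the cells and stained their nuclei (final 0.05% Triton X-100, 1% formaldehyde, 1 ug/ml Hoechst), and nuclei were counted on 4× images. Relative viability is the nuclei count in treated wells divided by the count in vehicle wells, and each value is the median of duplicate plates.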
# Etoposide + Pemetrexed = compound: COc1cc([C@@H]2c3cc4c(cc3[C@@H](O[C@@H]3O[C@@H]5CO[C@@H](C)O[C@H]5[C@H](O)[C@H]3O)[C@H]3COC(=O)[C@H]23)OCO4)cc(OC)c1O [Etoposide] + Nc1nc2[nH]cc(CCc3ccc(C(=O)N[C@@H](CCC(=O)O)C(=O)O)cc3)c2c(=O)[nH]1 [Pemetrexed] (partner 0.2 µM)
# In short: as §2
Cell Line,relative viability (Bleomycin; 0.01 µM),relative viability (Bleomycin; 0.03162 µM),relative viability (Bleomycin; 0.1 µM),relative viability (Bleomycin; 0.3162 µM),relative viability (Bleomycin; 1 µM),relative viability (Etoposide; 0.01 µM),relative viability (Etoposide; 0.03162 µM),relative viability (Etoposide; 0.1 µM),relative viability (Etoposide; 0.3162 µM),relative viability (Etoposide; 1 µM),relative viability (Bleomycin + OSI-027; first compound 0.01 µM),relative viability (Bleomycin + OSI-027; first compound 0.03162 µM),relative viability (Bleomycin + OSI-027; first compound 0.1 µM),relative viability (Bleomycin + OSI-027; first compound 0.3162 µM),relative viability (Bleomycin + OSI-027; first compound 1 µM),relative viability (Etoposide + Pemetrexed; first compound 0.01 µM),relative viability (Etoposide + Pemetrexed; first compound 0.03162 µM),relative viability (Etoposide + Pemetrexed; first compound 0.1 µM),relative viability (Etoposide + Pemetrexed; first compound 0.3162 µM),relative viability (Etoposide + Pemetrexed; first compound 1 µM)
LU99A,0.766,0.794,0.659,0.407,0.242,0.934,1.17,0.499,0.681,0.233,0.253,0.289,0.259,0.234,0.161,0.161,0.18,0.186,0.163,0.167
LXF-289,0.94,0.972,0.912,0.539,0.231,1.05,1.04,1.13,0.878,0.311,0.647,0.781,0.693,0.315,0.169,0.961,0.952,1.04,0.788,0.285
NCI-H23,0.458,0.439,0.304,0.218,0.161,1.02,1.03,0.671,0.371,0.212,0.361,0.401,0.272,0.141,0.145,0.659,0.697,0.472,0.411,0.216
NCI-H322M,0.861,1.02,0.928,0.568,0.54,0.947,1.05,0.822,0.838,0.52,0.399,0.535,0.513,0.464,0.421,0.604,0.603,0.625,0.587,0.524
NCI-H358,0.879,0.944,0.829,0.445,0.428,0.985,0.982,0.564,0.302,0.17,0.73,0.67,0.662,0.335,0.185,0.179,0.186,0.178,0.168,0.157
NCI-H441,0.626,0.922,0.862,0.651,0.42,0.923,1.03,0.751,0.308,0.172,0.404,0.735,0.534,0.383,0.283,0.254,0.257,0.235,0.193,0.153
NCI-H460,0.738,0.661,0.483,0.0877,0.0714,0.899,0.933,0.785,0.164,0.0591,0.373,0.334,0.165,0.038,0.0308,0.0661,0.0549,0.061,0.0772,0.0604
NCI-H520,0.901,0.92,0.816,0.747,0.602,0.881,0.879,0.636,0.87,0.709,0.272,0.299,0.21,0.208,0.198,0.633,0.801,0.708,0.65,0.485
NCI-H522,0.833,0.79,0.666,0.432,0.345,0.977,1.04,0.811,0.928,0.743,0.662,0.619,0.593,0.419,0.432,0.896,1.22,0.784,0.877,1
NCI-H596,0.775,0.754,0.637,0.377,0.412,0.866,1.03,0.685,0.877,0.734,0.48,0.561,0.512,0.304,0.278,0.463,0.539,0.488,0.546,0.477
NCI-H647,0.397,0.369,0.237,0.125,0.0764,0.815,1.07,0.815,0.442,0.195,0.195,0.184,0.184,0.0871,0.0587,0.173,0.161,0.188,0.121,0.121
NCI-H650,0.743,1.11,0.768,0.492,0.242,0.949,0.98,0.68,0.561,0.256,0.433,0.546,0.481,0.429,0.234,0.901,1.01,0.608,0.673,0.347
NCI-H661,0.907,0.875,0.767,0.475,0.394,1.03,1.03,0.873,0.827,0.565,0.632,0.683,0.4,0.23,0.235,0.863,0.984,0.849,0.858,0.625
NCI-H838,0.692,0.436,0.301,0.229,0.213,0.963,1.03,0.719,0.773,0.351,0.347,0.269,0.186,0.173,0.174,0.277,0.259,0.274,0.251,0.239
NCI-H1355,0.935,1.02,0.979,0.482,0.297,0.947,1.08,0.535,0.713,0.33,0.459,0.416,0.427,0.258,0.194,1.09,1.09,0.617,0.919,0.46
NCI-H1395,0.753,0.833,0.603,0.476,0.398,0.872,0.961,0.804,0.781,0.658,0.533,0.647,0.516,0.367,0.404,0.765,0.894,0.758,0.823,0.599
NCI-H1437,0.879,0.985,0.886,0.654,0.567,1.04,1.07,0.999,0.68,0.343,0.76,0.848,0.748,0.522,0.368,0.309,0.318,0.303,0.325,0.303
NCI-H1563,0.843,0.836,0.783,0.625,0.652,0.816,0.974,0.791,0.641,0.55,0.67,0.806,0.657,0.577,0.581,0.693,0.806,0.547,0.425,0.371
NCI-H1648,0.71,0.696,0.773,0.608,0.68,–,1.01,0.783,0.674,0.516,0.274,–,0.257,0.246,0.274,–,0.859,0.732,0.798,0.581
NCI-H1650,0.584,0.394,0.243,0.179,0.195,0.897,0.903,0.739,0.38,0.161,0.468,0.332,0.227,0.171,0.151,0.354,0.376,0.388,0.239,0.223
NCI-H1651,0.865,0.825,0.711,0.456,0.254,0.976,0.997,0.792,0.485,0.199,0.671,0.524,0.551,0.323,0.186,0.707,0.728,0.466,0.382,0.127
NCI-H1666,0.781,0.737,0.649,0.474,0.451,0.947,0.908,0.818,0.483,0.414,0.678,0.671,0.636,0.515,0.408,0.832,0.866,0.923,0.631,0.563
NCI-H1734,0.811,0.743,0.717,0.411,0.287,0.979,1.2,0.597,0.676,0.304,0.565,0.544,0.465,0.254,0.226,0.391,0.49,0.408,0.415,0.328
NCI-H1755,0.94,1,0.96,0.813,0.673,0.998,1.05,0.963,0.935,0.829,0.67,0.727,0.706,0.718,0.427,0.468,0.467,0.519,0.41,0.428
NCI-H1792,0.755,1.03,0.733,0.387,0.421,1.01,1.22,0.522,0.816,0.416,0.728,0.863,0.649,0.459,0.338,0.743,0.768,–,0.616,0.229
NCI-H1793,0.817,0.772,0.754,0.293,0.226,0.813,1.12,–,0.758,0.334,0.271,0.311,0.249,0.156,0.138,–,0.97,0.458,0.629,0.226
NCI-H1915,0.739,0.74,0.489,0.287,0.165,1,1.1,0.891,0.889,0.684,0.434,0.429,0.373,0.21,0.144,0.504,0.516,0.484,0.474,0.459
NCI-H1944,0.53,0.481,0.397,0.232,0.184,0.973,1.13,0.729,0.522,0.273,0.279,0.278,0.224,0.179,0.151,0.591,0.797,0.396,0.44,0.189
